Values quoted from earlier work, collected in US12622947B2, “Pharmaceutical composition for treating levodopa-induced dyskinesia or for suppressing progression thereof” (PEPTRON, INC., priority 2019, dated 2026).

Experiments:
[1] = compared to GLP-1-Tf (Martin et al., 2012)
[2] = in vivo
[3] = system: MPTP mouse model; details: given daily for 7 days after treatment (Liu et al., 2015)

Exendin-4
rotarod performance [1]: improve rotarod performance
crossing the BBB / entry into the brain from blood [2]: enter the brain from blood although its entry speed is limited
neuro-protection [3]: not effective
